Measured values reported in patent publication US20260028348A1, “MODULATORS OF TNF-ALPHA ACTIVITY” (Forward Therapeutics, Inc., priority 2023, published 2026).

Tested on: HEK Blue™ TNFα reporter cells
Assay: TNF-α Induced HEK Blue Cellular Assay
Format: cell-based
Conditions: TNF-α stimulated HEK Blue TNFα reporter cells, 24 hrs, secreted alkaline phosphatase (QUANTI-Blue, 620 nm)
Method: Test articles were diluted in DMSO and serially diluted into 384 well assay plate (Corning 3765), at final concentrations ranging from […] to 0.5 nM. HEK Blue™ TNFα reporter cells were added at a final density of 10,000 cell per well in assay media [DMEM (Gibco, cat #21063-029), 10% fetal bovine serum (ExcelBio, cat #FND500), 1% Penicillin-Streptomycin (Solarbio, cat #P1400-100]. TNF-α (R&D 210-TA-020/CF) was then added to the assay plate at a final concentration of […]. This plate was then incubated for 24 hrs at 37° C. and 5% CO2. Secreted alkaline phosphatase expression was then measured using QUANTI-Blue™(Invivogen), according to manufacturer instructions and read on an Envision microplate reader at 620 nm.
Inhibition data for test compound over a range of concentration was plotted as percentage inhibition of the test compound (100%=maximum inhibition). IC50 values were determined after correcting for background [(sample read-mean of low control)/(mean of high control-mean of low control)] whereby the low control is DMSO without stimulation and high control is DMSO with stimulation. The IC50 is defined as the concentration of test compound which produces […] and was quantified using the 4 parameter logistic equation to fit the data.

| Structure (SMILES) | IC50 |
| --- | --- |
| CN1C(=O)c2cccc(OC(F)F)c2[C@H]2C[C@@H]1c1nc3ccc(-c4cnc5c(c4)CC[C@@]5(C)O)cc3n12 (single isomer, unassigned) [Example 11] | < 100 nM |
| CN1C(=O)c2cccc(OC(F)F)c2[C@H]2C[C@@H]1c1nc3ccc(-c4cnc5c(c4)CC[C@]5(C)O)cc3n12 (single isomer, unassigned) [Example 12] | < 100 nM |
| CN1C(=O)c2cccc(OC(F)F)c2[C@H]2C[C@@H]1c1nc3ccc(-c4cnc5c(c4)CC[C@@H]5N)cc3n12 (single isomer, unassigned) [Example 16] | < 100 nM |
| CN1C(=O)c2cccc(OC(F)F)c2[C@H]2C[C@@H]1c1nc3ccc(-c4cnc5c(c4)CC[C@H]5N)cc3n12 (single isomer, unassigned) [Example 17] | < 100 nM |
| CN1C(=O)c2cccc(OC(F)F)c2[C@H]2C[C@@H]1c1nc3ccc(-c4cnc5c(c4)CC[C@@]5(C)N)cc3n12 (single isomer, unassigned) [Example 22] | < 100 nM |
| CN1C(=O)c2cccc(OC(F)F)c2[C@H]2C[C@@H]1c1nc3ccc(-c4cnc5c(c4)CC[C@]5(C)N)cc3n12 (single isomer, unassigned) [Example 23] | < 100 nM |
| [2H]C([2H])([2H])N1C(=O)c2cccc(OC(F)F)c2[C@H]2C[C@@H]1c1nc3cc(F)c(-c4cnc5c(c4)CC[C@]5(C)N)cc3n12 (single isomer, unassigned) [Example 25] | < 100 nM |
| [2H]C([2H])([2H])N1C(=O)c2cccc(OC(F)F)c2[C@H]2C[C@@H]1c1nc3cc(F)c(-c4cnc5c(c4)CC[C@@]5(C)N)cc3n12 (single isomer, unassigned) [Example 26] | < 100 nM |
| [2H]C([2H])([2H])N1C(=O)c2cccc(OC(F)F)c2[C@H]2C[C@@H]1c1nc3ccc(-c4cnc5c(c4)CC[C@]5(C)N)cc3n12 (single isomer, unassigned) [Example 28] | < 100 nM |
| [2H]C([2H])([2H])N1C(=O)c2cccc(OC(F)F)c2[C@H]2C[C@@H]1c1nc3ccc(-c4cnc5c(c4)CC[C@@]5(C)N)cc3n12 (single isomer, unassigned) [Example 29] | < 100 nM |
| [2H]C([2H])([2H])N1C(=O)c2cccc(OC(F)F)c2[C@H]2C[C@@H]1c1nc3ccc(-c4cnc5c(c4)CC[C@]5(C)O)cc3n12 (single isomer, unassigned) [Example 32] | < 100 nM |
| [2H]C([2H])([2H])N1C(=O)c2cccc(OC(F)F)c2[C@H]2C[C@@H]1c1nc3ccc(-c4cnc5c(c4)CC[C@@]5(C)O)cc3n12 (single isomer, unassigned) [Example 33] | < 100 nM |
| [2H]C([2H])([2H])N1C(=O)c2cccc(OC(F)F)c2[C@H]2C[C@@H]1c1nc3ccc(-c4cnc5c(c4)OCC[C@]5(C)O)cc3n12 (single isomer, unassigned) [Example 34] | < 100 nM |
| [2H]C([2H])([2H])N1C(=O)c2cccc(OC(F)F)c2[C@H]2C[C@@H]1c1nc3ccc(-c4cnc5c(c4)OCC[C@@]5(C)O)cc3n12 (single isomer, unassigned) [Example 35] | < 100 nM |
| CN1C(=O)c2cccc(OC(F)F)c2[C@H]2C[C@@H]1c1nc3ccc(-c4cnc5c(c4)CC[C@]5(N)CO)cc3n12 (single isomer, unassigned) [Example 36] | < 100 nM |
| CN1C(=O)c2cccc(OC(F)F)c2[C@H]2C[C@@H]1c1nc3ccc(-c4cnc5c(c4)CC[C@@]5(N)CO)cc3n12 (single isomer, unassigned) [Example 37] | < 100 nM |
| [2H]C([2H])([2H])N1C(=O)c2cccc(OC(F)F)c2[C@H]2C[C@@H]1c1nc3ccc(-c4cnc5c(c4)COC[C@]5(C)O)cc3n12 (single isomer, unassigned) [Example 38] | 10000 to 30000 nM |

| Structure (SMILES) | IC50 |
| --- | --- |
| [2H]C([2H])([2H])N1C(=O)c2cccc(OC(F)F)c2[C@H]2C[C@@H]1c1nc3ccc(-c4cnc5c(c4)COC[C@@]5(C)O)cc3n12 (single isomer, unassigned) [Example 39] | 10000 to 30000 nM |
| [2H]C([2H])([2H])N1C(=O)c2cccc(OC(F)F)c2[C@H]2C[C@@H]1c1nc3ccc(-c4cnc5c(c4)COC[C@@]5(O)CC)cc3n12 (single isomer, unassigned) [Example 40] | 10000 to 30000 nM |
| [2H]C([2H])([2H])N1C(=O)c2cccc(OC(F)F)c2[C@H]2C[C@@H]1c1nc3ccc(-c4cnc5c(c4)COC[C@]5(O)CC)cc3n12 (single isomer, unassigned) [Example 41] | 10000 to 30000 nM |
| [2H]C([2H])([2H])N1C(=O)c2cccc(OC(F)F)c2[C@H]2C[C@@H]1c1nc3ccc(-c4cnc5c(c4)NC(=O)[C@]5(C)O)cc3n12 (single isomer, unassigned) [Example 42] | < 100 nM |
| [2H]C([2H])([2H])N1C(=O)c2cccc(OC(F)F)c2[C@H]2C[C@@H]1c1nc3ccc(-c4cnc5c(c4)NC(=O)[C@@]5(C)O)cc3n12 (single isomer, unassigned) [Example 43] | < 100 nM |
| [2H]C([2H])([2H])N1C(=O)c2cccc(OC(F)F)c2[C@H]2C[C@@H]1c1nc3ccc(-c4cnc5c(c4)OC[C@]5(C)O)cc3n12 (single isomer, unassigned) [Example 46] | < 100 nM |
| [2H]C([2H])([2H])N1C(=O)c2cccc(OC(F)F)c2[C@H]2C[C@@H]1c1nc3ccc(-c4cnc5c(c4)OC[C@@]5(C)O)cc3n12 (single isomer, unassigned) [Example 47] | < 100 nM |
| [2H]C([2H])([2H])N1C(=O)c2cccc(OC(F)F)c2[C@H]2C[C@@H]1c1nc3ccc(-c4cnc5c(c4)CC[C@@]5(C)O)c(F)c3n12 (single isomer, unassigned) [Example 49] | 100 to 1000 nM |
| [2H]C([2H])([2H])N1C(=O)c2cccc(OC(F)F)c2[C@H]2C[C@@H]1c1nc3ccc(-c4cnc5c(c4)CC[C@]5(C)O)c(F)c3n12 (single isomer, unassigned) [Example 50] | < 100 nM |
| [2H]C([2H])([2H])N1C(=O)c2cccc(OC(F)F)c2[C@H]2C[C@@H]1c1nc3ccc(-c4cnc5c(c4)OCC[C@@]5(C)O)c(F)c3n12 (single isomer, unassigned) [Example 51] | < 100 nM |
| [2H]C([2H])([2H])N1C(=O)c2cccc(OC(F)F)c2[C@H]2C[C@@H]1c1nc3ccc(-c4cnc5c(c4)OCC[C@]5(C)O)c(F)c3n12 (single isomer, unassigned) [Example 52] | < 100 nM |
| [2H]C([2H])([2H])N1C(=O)c2cccc(OC(F)F)c2[C@H]2C[C@@H]1c1nc3ccc(-c4cnc5c(c4)OC[C@@]5(C)O)c(F)c3n12 (single isomer, unassigned) [Example 53] | < 100 nM |
| [2H]C([2H])([2H])N1C(=O)c2cccc(OC(F)F)c2[C@H]2C[C@@H]1c1nc3ccc(-c4cnc5c(c4)OC[C@]5(C)O)c(F)c3n12 (single isomer, unassigned) [Example 54] | < 100 nM |
| [2H]C([2H])([2H])N1C(=O)c2cccc(OC(F)F)c2[C@H]2C[C@@H]1c1nc3ccc(-c4cnc5c(c4)OC[C@]5(C)N)cc3n12 (single isomer, unassigned) [Example 55] | < 100 nM |
| [2H]C([2H])([2H])N1C(=O)c2cccc(OC(F)F)c2[C@H]2C[C@@H]1c1nc3ccc(-c4cnc5c(c4)OC[C@@]5(C)N)cc3n12 (single isomer, unassigned) [Example 56] | < 100 nM |
| CN1C(=O)c2cccc(OC(F)F)c2[C@H]2C[C@@H]1c1nc3ccc(-c4cnc5c(c4)OC[C@]5(C)N)cc3n12 (single isomer, unassigned) [Example 57] | < 100 nM |
